# According to patent publication US10202361B2, “Pyridazinones as herbicides” (E I DU PONT DE NEMOURS AND COMPANY, priority 2014, dated 2019):
# How the values were obtained:
# Type in all cases: in vivo
# [1] = tested on: foxtail, green (green foxtail, Setaria viridis); test: Test D pre-/postemergence controlled growth environment herbicide test; details: scale 0 to 100
# Text: (§1) Seeds of plant species selected from bluegrass (annual bluegrass, Poa annua), blackgrass (Alopecurus myosuroides), canarygrass (Phalaris minor), chickweed (common chickweed, Stellaria media), galium (catchweed bedstraw, Galium aparine), downy bromegrass (Bromus tectorum), field poppy (Papaver rhoeas), field violet (Viola arvensis), foxtail, green (green foxtail, Setaria viridis), deadnettle (henbit deadnettle, Lamium amplexicaule), ryegrass, Italian (Italian ryegrass, Lolium multiflorum), kochia (Kochia scoparia), lambsquarters (Chenopodium album), oilseed rape (Brassica napus), pigweed (Amaranthus retroflexus), chamomile (scentless chamomile, Matricaria inodora), Russian thistle (Salsola kali), speedwell (bird's-eye speedwell, Veronica persica), barley, spring (spring barley, Hordeum vulgare), wheat, spring (spring wheat, Triticum aestivum), buckwheat, wild (wild buckwheat, Polygonum convolvulus), mustard, wild (wild mustard, Sinapis arvensis), oat, wild (wild oat, Avena fatua), radish, wild (wild radish, Raphanus raphanistrum), windgrass (Apera spica-venti), barley, winter (winter barley, Hordeum vulgare), and wheat, winter (winter wheat, Triticum aestivum) were planted into a silt loam soil and treated preemergence with test chemicals formulated in a non-phytotoxic solvent mixture which included a surfactant.
# (§2) At the same time, these species were planted in pots containing Redi-Earth® planting medium (Scotts Company, 14111 Scottslawn Road, Marysville, Ohio 43041) comprising spaghnum peat moss, vermiculite, wetting agent and starter nutrients and treated with postemergence applications of the test chemicals formulated in the same manner. Plants ranged in height from 2 to 18 cm (1- to 4-leaf stage). Treated plants and controls were maintained in a controlled growth environment for 14 to 21 d after which time all species were compared to controls and visually evaluated. Plant response ratings, summarized in Table D, are based on a scale of 0 to 100 where 0 is no effect and 100 is complete control. A dash (-) response means no test result.
# [2] = tested on: speedwell (bird's-eye speedwell, Veronica persica); test: as above; details: scale 0 to 100
# Text: as §1, §2
# [3] = tested on: crabgrass, Brazil (Brazilian crabgrass, Digitaria horizontalis); test: Test E pre-/postemergence greenhouse herbicide test; details: scale 0 to 100
# Outline: (§3)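 Visual control ratings on a 0 to 100 scale (100 = complete control) were made 14 to 21 d after treatment, relative to untreated controls. Test chemicals, formulated with surfactant in a non-phytotoxic solvent, were applied to seeded silt loam soil (preemergence) and to 2 to 18 cm plants (postemergence).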
# [4] = tested on: field bindweed (Convolvulus arvensis); test: as above; details: scale 0 to 100
# Outline: as §3
# [5] = tested on: foxtail, green (green foxtail, Setaria viridis); test: as above; details: Preemergence, scale 0 to 100
# Outline: as §3
# [6] = tested on: johnsongrass (Sorghum halepense); test: as above; details: Preemergence, scale 0 to 100
# Outline: as §3
# kochia (Kochia scoparia) = test: as above; details: Preemergence, scale 0 to 100
# Outline: as §3
# [7] = tested on: panicum, fall (fall panicum, Panicum dichotomiflorum); test: as above; details: scale 0 to 100
# Outline: as §3
# [8] = tested on: ragweed (common ragweed, Ambrosia elatior); test: as above; details: Preemergence, scale 0 to 100
# Outline: as §3
# soybean (Glycine max) = test: as above; details: scale 0 to 100
# Outline: as §3
smiles,measurement,setting,value
"COc1cc(=O)n(-c2ccc(F)cc2)nc1Cc1ccnc(C(F)(F)F)c1 [Compound 17, 2-(4-fluorophenyl)-5-methoxy-6-[[2-(trifluoromethyl)-4-pyridinyl]methyl]-3 (2H)-pyridazinone]",Plant response rating,"[1]; Postemergence, 31 g ai/ha",10
same,Plant response rating,"[1]; Postemergence, 62 g ai/ha",10
same,Plant response rating,"[1]; Postemergence, 125 g ai/ha",15
same,Plant response rating,"[1]; Postemergence, 250 g ai/ha",30
same,Plant response rating,"[1]; Postemergence, 500 g ai/ha",80
same,Plant response rating,"[1]; Preemergence, 31 g ai/ha",15
same,Plant response rating,"[1]; Preemergence, 62 g ai/ha",95
same,Plant response rating,"[1]; Preemergence, 125 g ai/ha",100
same,Plant response rating,"[1]; Preemergence, 250 g ai/ha",100
same,Plant response rating,"[1]; Preemergence, 500 g ai/ha",100
same,Plant response rating,"[2]; Postemergence, 31 g ai/ha",10
same,Plant response rating,"[2]; Postemergence, 62 g ai/ha",100
same,Plant response rating,"[2]; Postemergence, 125 g ai/ha",100
same,Plant response rating,"[2]; Postemergence, 250 g ai/ha",100
same,Plant response rating,"[2]; Postemergence, 500 g ai/ha",100
same,Plant response rating,"[2]; Preemergence, 31 g ai/ha",100
same,Plant response rating,"[2]; Preemergence, 62 g ai/ha",100
same,Plant response rating,"[2]; Preemergence, 125 g ai/ha",100
same,Plant response rating,"[2]; Preemergence, 250 g ai/ha",100
same,Plant response rating,"[2]; Preemergence, 500 g ai/ha",100
same,"Plant response rating: Crabgrass, Brazil","[3]; Postemergence, 16 g ai/ha",20
same,"Plant response rating: Crabgrass, Brazil","[3]; Postemergence, 31 g ai/ha",20
same,"Plant response rating: Crabgrass, Brazil","[3]; Postemergence, 62 g ai/ha",20
same,"Plant response rating: Crabgrass, Brazil","[3]; Postemergence, 125 g ai/ha",30
same,"Plant response rating: Crabgrass, Brazil","[3]; Postemergence, 250 g ai/ha",70
same,"Plant response rating: Crabgrass, Brazil","[3]; Preemergence, 16 g ai/ha",100
same,"Plant response rating: Crabgrass, Brazil","[3]; Preemergence, 31 g ai/ha",100
same,"Plant response rating: Crabgrass, Brazil","[3]; Preemergence, 62 g ai/ha",100
same,"Plant response rating: Crabgrass, Brazil","[3]; Preemergence, 125 g ai/ha",100
same,"Plant response rating: Crabgrass, Brazil","[3]; Preemergence, 250 g ai/ha",100
same,Plant response rating: Field Bindweed,"[4]; Postemergence, 16 g ai/ha",40
same,Plant response rating: Field Bindweed,"[4]; Postemergence, 31 g ai/ha",40
same,Plant response rating: Field Bindweed,"[4]; Postemergence, 62 g ai/ha",50
same,Plant response rating: Field Bindweed,"[4]; Postemergence, 125 g ai/ha",60
same,Plant response rating: Field Bindweed,"[4]; Postemergence, 250 g ai/ha",75
same,Plant response rating: Field Bindweed,"[4]; Preemergence, 16 g ai/ha",0
same,Plant response rating: Field Bindweed,"[4]; Preemergence, 31 g ai/ha",0
same,Plant response rating: Field Bindweed,"[4]; Preemergence, 62 g ai/ha",0
same,Plant response rating: Field Bindweed,"[4]; Preemergence, 125 g ai/ha",5
same,Plant response rating: Field Bindweed,"[4]; Preemergence, 250 g ai/ha",98
same,"Plant response rating: Foxtail, Green",[5]; 16 g ai/ha,0
same,"Plant response rating: Foxtail, Green",[5]; 31 g ai/ha,50
same,"Plant response rating: Foxtail, Green",[5]; 62 g ai/ha,75
same,"Plant response rating: Foxtail, Green",[5]; 125 g ai/ha,75
same,"Plant response rating: Foxtail, Green",[5]; 250 g ai/ha,100
same,Plant response rating: Johnsongrass,[6]; 16 g ai/ha,0
same,Plant response rating: Johnsongrass,[6]; 31 g ai/ha,10
same,Plant response rating: Johnsongrass,[6]; 62 g ai/ha,35
same,Plant response rating: Johnsongrass,[6]; 125 g ai/ha,75
same,Plant response rating: Johnsongrass,[6]; 250 g ai/ha,90
same,Plant response rating: Kochia,kochia (Kochia scoparia); 16 g ai/ha,70
same,Plant response rating: Kochia,kochia (Kochia scoparia); 31 g ai/ha,90
same,Plant response rating: Kochia,kochia (Kochia scoparia); 62 g ai/ha,95
same,Plant response rating: Kochia,kochia (Kochia scoparia); 125 g ai/ha,98
same,Plant response rating: Kochia,kochia (Kochia scoparia); 250 g ai/ha,98
same,"Plant response rating: Panicum, Fall","[7]; Postemergence, 16 g ai/ha",15
same,"Plant response rating: Panicum, Fall","[7]; Postemergence, 31 g ai/ha",20
same,"Plant response rating: Panicum, Fall","[7]; Postemergence, 62 g ai/ha",20
same,"Plant response rating: Panicum, Fall","[7]; Postemergence, 125 g ai/ha",30
same,"Plant response rating: Panicum, Fall","[7]; Postemergence, 250 g ai/ha",50
same,"Plant response rating: Panicum, Fall","[7]; Preemergence, 16 g ai/ha",80
same,"Plant response rating: Panicum, Fall","[7]; Preemergence, 31 g ai/ha",90
same,"Plant response rating: Panicum, Fall","[7]; Preemergence, 62 g ai/ha",98
same,"Plant response rating: Panicum, Fall","[7]; Preemergence, 125 g ai/ha",100
same,"Plant response rating: Panicum, Fall","[7]; Preemergence, 250 g ai/ha",100
same,Plant response rating: Ragweed,[8]; 16 g ai/ha,0
same,Plant response rating: Ragweed,[8]; 31 g ai/ha,0
same,Plant response rating: Ragweed,[8]; 62 g ai/ha,10
same,Plant response rating: Ragweed,[8]; 125 g ai/ha,35
same,Plant response rating: Ragweed,[8]; 250 g ai/ha,80
same,Plant response rating: Soybean,"soybean (Glycine max); Postemergence, 16 g ai/ha",30
same,Plant response rating: Soybean,"soybean (Glycine max); Postemergence, 31 g ai/ha",30
same,Plant response rating: Soybean,"soybean (Glycine max); Postemergence, 62 g ai/ha",50
same,Plant response rating: Soybean,"soybean (Glycine max); Postemergence, 125 g ai/ha",60
same,Plant response rating: Soybean,"soybean (Glycine max); Postemergence, 250 g ai/ha",85
same,Plant response rating: Soybean,"soybean (Glycine max); Preemergence, 16 g ai/ha",0
same,Plant response rating: Soybean,"soybean (Glycine max); Preemergence, 31 g ai/ha",0
same,Plant response rating: Soybean,"soybean (Glycine max); Preemergence, 62 g ai/ha",0
same,Plant response rating: Soybean,"soybean (Glycine max); Preemergence, 125 g ai/ha",65
same,Plant response rating: Soybean,"soybean (Glycine max); Preemergence, 250 g ai/ha",80
"CCOc1cc(=O)n(-c2ccc(F)cc2)nc1Cc1ccnc(C(F)(F)F)c1 [Compound 25, 5-ethoxy-2-(4-fluorophenyl)-6-[[2-(trifluoromethyl)-4-pyridinyl]methyl]-3 (2H)-pyridazinone]","Plant response rating: Crabgrass, Brazil","[3]; Preemergence, 8 g ai/ha",0
same,"Plant response rating: Crabgrass, Brazil","[3]; Preemergence, 16 g ai/ha",75
same,"Plant response rating: Crabgrass, Brazil","[3]; Preemergence, 31 g ai/ha",98
same,"Plant response rating: Crabgrass, Brazil","[3]; Preemergence, 62 g ai/ha",100
same,"Plant response rating: Crabgrass, Brazil","[3]; Preemergence, 125 g ai/ha",100
same,Plant response rating: Field Bindweed,"[4]; Preemergence, 8 g ai/ha",0
same,Plant response rating: Field Bindweed,"[4]; Preemergence, 16 g ai/ha",0
same,Plant response rating: Field Bindweed,"[4]; Preemergence, 31 g ai/ha",0
same,Plant response rating: Field Bindweed,"[4]; Preemergence, 62 g ai/ha",5
same,Plant response rating: Field Bindweed,"[4]; Preemergence, 125 g ai/ha",100
same,"Plant response rating: Foxtail, Green",[5]; 8 g ai/ha,0
same,"Plant response rating: Foxtail, Green",[5]; 16 g ai/ha,5
same,"Plant response rating: Foxtail, Green",[5]; 31 g ai/ha,35
same,"Plant response rating: Foxtail, Green",[5]; 62 g ai/ha,90
same,"Plant response rating: Foxtail, Green",[5]; 125 g ai/ha,100
same,Plant response rating: Johnsongrass,[6]; 8 g ai/ha,0
same,Plant response rating: Johnsongrass,[6]; 16 g ai/ha,0
same,Plant response rating: Johnsongrass,[6]; 31 g ai/ha,10
same,Plant response rating: Johnsongrass,[6]; 62 g ai/ha,35
same,Plant response rating: Johnsongrass,[6]; 125 g ai/ha,65
same,Plant response rating: Kochia,kochia (Kochia scoparia); 8 g ai/ha,40
same,Plant response rating: Kochia,kochia (Kochia scoparia); 16 g ai/ha,50
same,Plant response rating: Kochia,kochia (Kochia scoparia); 31 g ai/ha,70
same,Plant response rating: Kochia,kochia (Kochia scoparia); 62 g ai/ha,100
same,Plant response rating: Kochia,kochia (Kochia scoparia); 125 g ai/ha,95
same,"Plant response rating: Panicum, Fall","[7]; Preemergence, 8 g ai/ha",0
same,"Plant response rating: Panicum, Fall","[7]; Preemergence, 16 g ai/ha",35
same,"Plant response rating: Panicum, Fall","[7]; Preemergence, 31 g ai/ha",50
same,"Plant response rating: Panicum, Fall","[7]; Preemergence, 62 g ai/ha",100
same,"Plant response rating: Panicum, Fall","[7]; Preemergence, 125 g ai/ha",100
same,Plant response rating: Ragweed,[8]; 8 g ai/ha,0
same,Plant response rating: Ragweed,[8]; 16 g ai/ha,0
same,Plant response rating: Ragweed,[8]; 31 g ai/ha,0
same,Plant response rating: Ragweed,[8]; 62 g ai/ha,20
same,Plant response rating: Ragweed,[8]; 125 g ai/ha,50
same,Plant response rating: Soybean,"soybean (Glycine max); Preemergence, 8 g ai/ha",0
same,Plant response rating: Soybean,"soybean (Glycine max); Preemergence, 16 g ai/ha",0
same,Plant response rating: Soybean,"soybean (Glycine max); Preemergence, 31 g ai/ha",0
same,Plant response rating: Soybean,"soybean (Glycine max); Preemergence, 62 g ai/ha",20
same,Plant response rating: Soybean,"soybean (Glycine max); Preemergence, 125 g ai/ha",30
